# Data as given in patent publication US10542747B2, “Plant irrigation methods with 1-MCP” (Syngenta Participations AG, priority 2010, dated 2020).
# What was measured:
# [1] = tested on: 5-6 leaf tomato plants (var. Rutgers); assay: Tomato epinasty test (Cerone/ethephon challenge); format: in vivo; settings: 200 l/ha, average of 8 plants
# Method: Bioassay test material: 5-6 leaf tomato plants (var. Rutgers), 8 reps/treatment.
# The first column of table 1 provides a summary of change in angle of the 3rd leaf petiole at 24 hours after application of Cerone (ethephon). There are two sets of data, one for those challenged with Cerone at 4 hours after 1-MCP formulation application and a second set for plants challenged with Cerone at 24 hrs after 1-MCP formulation application. Data are the averages of 8 replicate plants
# Procedures Used for Epinasty Test:
# 1-MCP formulation and rates: 1-MCP in the form of an α-cyclodextrin molecularly encapsulated powder dispersed in an aqueous MgSO4 solution
# Standard foliar spray at 200 l/ha and 0.035% v/v kinetic silicon adjuvant 0, 10 and 20 g ai/ha
# Application rate 500 g ai/ha at 400 l/ha application volume
# Application at 4 and 24 HAA of Invinsa
# Angle of 3rd petiole to plants stem measured prior to 1-MCP application and again at 24 HAT Final data expressed as average change in 3rd petiole angle
# [2] = tested on: Wheat plants, variety ARINA; assay: Effect of 1-MCP on stressed wheat plants grown in pouches (drought stress); format: in vivo; settings: 200 ppm in the pouch water at day 8; 5 days without watering at 26° C.; FIG. 1
# Method: FIG. 1 illustrates wheat plants grown in pouches. On the right-hand side plants treated with 1-MCP and on the left-hand side non treated check plants.
# 10 mL of the mixture are added per pouch with a pipette.
# 20 to 25 Wheat kernels from the variety ARINA were sown in a plastic bag (pouch) with an absorbent paper, watered and grown under optimal conditions in a climate chamber for 8 days. At day 8 the 1-MCP in the form of an α-cyclodextrin molecularly encapsulated powder was applied at a 200 ppm rate to the water in the pouch. After application the plants were not watered anymore, but placed in a warm environment at 26° C. After 5 days without watering the differences of treated vs. untreated were evaluated visually (FIG. 1).
# [3] = tested on: 5-6 leaf tomato plants (var. Rutgers); assay: Tomato epinasty test (Cerone/ethephon challenge); format: in vivo; settings: average of 8 plants
# [4] = cited from earlier work
compound,measurement,setting,value
"CC1=CC1 [1-MCP, 1-methylcyclopropene]",Average change in angle of third petiole,"[1]; 10 g ai/ha foliar spray, Cerone applied 4 HAA 1-MCP",71
same,Average change in angle of third petiole,"[1]; 10 g ai/ha foliar spray, Cerone applied 24 HAA 1-MCP",82
same,Average change in angle of third petiole,"[1]; 20 g ai/ha foliar spray, Cerone applied 4 HAA 1-MCP",40
same,Average change in angle of third petiole,"[1]; 20 g ai/ha foliar spray, Cerone applied 24 HAA 1-MCP",86
same,"drought tolerance of treated vs. untreated plants, evaluated visually",[2],greater drought tolerance than control plants
same,Average change in angle of third petiole,"[3]; 1 g ai/ha chemigation, Cerone applied 4 HAA 1-MCP",60
same,Average change in angle of third petiole,"[3]; 1 g ai/ha chemigation, Cerone applied 24 HAA 1-MCP",78
same,Average change in angle of third petiole,"[3]; 10 g ai/ha chemigation, Cerone applied 4 HAA 1-MCP",20
same,Average change in angle of third petiole,"[3]; 10 g ai/ha chemigation, Cerone applied 24 HAA 1-MCP",48
same,Average change in angle of third petiole,"[3]; 20 g ai/ha chemigation, Cerone applied 4 HAA 1-MCP",−9
same,Average change in angle of third petiole,"[3]; 20 g ai/ha chemigation, Cerone applied 24 HAA 1-MCP",41
same,Average change in angle of third petiole,"[3]; >20 g ai/ha chemigation (incorrect pump calibration), Cerone applied 4 HAA 1-MCP",−4
same,Average change in angle of third petiole,"[3]; >20 g ai/ha chemigation (incorrect pump calibration), Cerone applied 24 HAA 1-MCP",18
same,water-solubility,[4],137 mg I−1
